{"source": "patent US20030171388A1", "about": "“Cosmetic or dermatological cream composition, the preparation and the use thereof” (priority 2003, published 2003)", "origin": "cited, not measured here", "tested_on": "liver cell cultures"}
{"smiles": "C[N+](C)(C)C[C@H](O)CC(=O)[O-]", "note": "[L-carnitine, 3-carboxy-2-hydroxy-N,N,N-trimethyl-1-propanamium-hydroxide]", "values": [{"measurement": "effect on the membrane potential of the mitochondrion", "result": "did not cause a loss in the membrane potential of the mitochondrion"}, {"measurement": "prevention of cell deaths", "result": "able to prevent cell deaths"}]}
